Assay type in all cases: cell-based
One assay concerns the target T1, THR alpha (Homo sapiens, UniProt P10827).
T1 construct: expressed in transfected cells; host or cells: HEK293T (ATCC CRL-3216)
T1 sequence (P10827 1-410 isoform P10827-2): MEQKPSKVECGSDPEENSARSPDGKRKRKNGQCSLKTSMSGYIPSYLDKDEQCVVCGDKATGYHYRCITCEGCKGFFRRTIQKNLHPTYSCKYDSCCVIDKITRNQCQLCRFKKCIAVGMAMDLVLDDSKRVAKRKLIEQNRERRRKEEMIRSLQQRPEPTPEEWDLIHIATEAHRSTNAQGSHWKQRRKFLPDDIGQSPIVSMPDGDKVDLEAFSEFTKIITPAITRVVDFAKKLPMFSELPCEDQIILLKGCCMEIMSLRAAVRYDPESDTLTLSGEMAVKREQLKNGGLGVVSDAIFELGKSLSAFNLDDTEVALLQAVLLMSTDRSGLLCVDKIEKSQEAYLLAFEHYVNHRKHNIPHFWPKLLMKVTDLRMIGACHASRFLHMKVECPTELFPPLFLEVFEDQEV
T1 sequence (P19793 1-462 partner): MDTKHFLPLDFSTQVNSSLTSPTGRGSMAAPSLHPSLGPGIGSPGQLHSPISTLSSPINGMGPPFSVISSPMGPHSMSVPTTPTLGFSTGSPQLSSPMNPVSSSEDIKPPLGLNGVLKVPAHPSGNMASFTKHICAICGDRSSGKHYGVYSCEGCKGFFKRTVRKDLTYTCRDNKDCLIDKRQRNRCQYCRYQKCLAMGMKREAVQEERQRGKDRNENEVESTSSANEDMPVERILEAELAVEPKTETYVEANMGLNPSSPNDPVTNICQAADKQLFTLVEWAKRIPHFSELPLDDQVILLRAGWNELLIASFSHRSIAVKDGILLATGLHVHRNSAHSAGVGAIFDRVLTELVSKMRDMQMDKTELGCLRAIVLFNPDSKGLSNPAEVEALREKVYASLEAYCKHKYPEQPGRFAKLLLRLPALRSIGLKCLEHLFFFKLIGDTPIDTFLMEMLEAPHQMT
Nature of the assay: HEK293T THR alpha/RXR luciferase reporter assay (Assay 2). The conditions noted are these: Assay 2; for Emax: HEK-293T, read-out: Activity category Assay 2 THRα (Emax); for Emax / Activity category Assay 2 THRα (Emax): Table 5, THRα; for EC50: Table 4, THR-alpha, read-out: Activity category Assay 2 (EC50, THR-alpha agonist activity). The gist of the method: (§1)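 HEK293T cells transiently transfected with TRE-luciferase reporter, RXR, and THR alpha or THR beta plasmid; ten five-fold compound dilutions from DMSO added for 18-24 h. One-Glo luminescence read; percent agonism normalized between negative and positive controls.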
A general note: A reporter such as luciferase makes a cellular process visible.

Assay [1] has as its system CPT1A gene expression in Huh-7 cells. Nature of the assay: Huh-7 differential gene expression, CPT1A RT-qPCR (Assay 3). Particulars: Table 6, Huh-7 cells, CPT1A, 24 hr treatment; for EC50: read-out: Activity category Assay 3 EC50; for Emax: read-out: Activity category Assay 3 Emax. On the procedure:
Huh-7 Differential Gene Expression (Assay 3)
Fetal bovine serum (FBS) was incubated with washed resin (50 mg resin/mL FBS; resin weight is dry weight of resin prior to washing) for 5 hr at room temperature on a rotor. The FBS was separated from the resin via centrifugation and incubated with new, washed resin for 18 h at room temperature on a rotor.
Cell Culture and Drug Treatment
Huh-7 cells were cultured in DMEM (10-013-CM, Corning) supplemented with 10% FBS and 1% Pen-Strep at 37° C. under 5% C02. When 70-80% confluence was reached, the cells were removed by trypsinization. The medium was aspirated from the cell culture dish, the cell monolayer was washed with 1×PBS, and 0.05% trypsin, 0.53 mM EDTA (25-052-CV, Corning) solution was added to the dish. After 3 min incubation, the cells were detached completely by repeatedly pipetting solution onto the monolayer. Equal volume of DMEM supplemented with 10% rFBS and 1% Pen-Strep (TH-depleted DMEM) was added to the dish to inactivate the trypsin. The cell suspension was centrifuged at 350×g at room temperature for 3 min. The supernatant was aspirated out and the cell pellet was resuspended in TH-depleted DMEM. […] After 24 hr incubation, the media was replaced with treatment media. All compounds were serially diluted in DMSO and final concentrations were reached by dilution in TH-depleted DMEM (0.1% DMSO). The cells were incubated in treatment media for 24 hr. Treatments were performed in biological duplicates.
After 24 hr in treatment media, the cells were lysed directly on the culture plates and cDNA was produced using the TaqMan™ Fast Advanced Cells-to-CT™ Kit (A35374, Invitrogen) and following the manufacturer's protocol. RT-qPCR for CPT1A (Hs00912671_m1) and two housekeeping genes, ACTB (Hs01060665_g1) and TFG (Hs02832013_g1), was performed using TaqMan™ Fast Advanced Master Mix. RT-qPCR reactions were run on the qTOWER^3 84 G (Analytik Jena) in technical duplicates.
ΔRn values were obtained from the qPCRsoft384 1.0 software and CPT1A gene expression was quantified via the 2-ΔΔCt method. Dose-response curves were generated using GraphPad Prism 8 using four parameter logistic equation without top constraint to derive EC50 and Emax.

Another assay concerns the target T2, THR beta (Homo sapiens, UniProt P10828).
T2 construct: expressed in transfected cells; host or cells: HEK293T (ATCC CRL-3216)
T2 sequence (P10828 1-461): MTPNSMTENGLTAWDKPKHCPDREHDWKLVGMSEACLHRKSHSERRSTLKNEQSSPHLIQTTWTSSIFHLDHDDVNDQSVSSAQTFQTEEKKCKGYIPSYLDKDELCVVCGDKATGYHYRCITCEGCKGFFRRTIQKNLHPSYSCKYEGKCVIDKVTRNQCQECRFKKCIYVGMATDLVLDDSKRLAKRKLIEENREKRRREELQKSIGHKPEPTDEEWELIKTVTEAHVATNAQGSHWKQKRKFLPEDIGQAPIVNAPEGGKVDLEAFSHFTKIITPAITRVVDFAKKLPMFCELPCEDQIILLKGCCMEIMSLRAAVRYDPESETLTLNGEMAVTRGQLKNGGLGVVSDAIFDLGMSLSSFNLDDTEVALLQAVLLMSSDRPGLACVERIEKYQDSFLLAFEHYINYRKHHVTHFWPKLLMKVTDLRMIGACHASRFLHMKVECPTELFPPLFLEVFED
T2 sequence (P19793 1-462 partner): T1 sequence (P19793 1-462 partner)
In words: HEK293T THR beta/RXR luciferase reporter assay (Assay 2). Particulars: for Emax: HEK-293T, read-out: Activity category Assay 2 THRβ (Emax); for Emax / Activity category Assay 2 THRβ (Emax): Table 5, Assay 2, THRβ; for EC50: THR-beta, HEK293T reporter assay, read-out: Activity category Assay 2 (EC50, THR-beta agonist). The gist of the method: as §1

Structures are written as SMILES. Like-named read-outs stand apart in the source and are kept apart here.

By Emax is commonly meant the greatest response seen or fitted, relative to the assay's reference. As usually defined, the EC50 is the concentration at which the effect is half-maximal.

For the molecule `CC(C)c1n[nH]c2nnc(Oc3c(Cl)cc(-n4nc(C#N)c(=O)[nH]c4=O)cc3Cl)cc12` [Compound 75A, 2-(3,5-Dichloro-4-((3-isopropyl-1H-pyrazolo[3,4-c]pyridazin-5-yl)oxy)phenyl)-3,5-dioxo-2,3,4,5-tetrahydro-1,2,4-triazine-6-carbonitrile], the Emax at THR alpha is under 50%; in assay [1] (Homo sapiens, Huh-7, 24 h), over 75%; on THR beta it was 50 to 75%. Further, the EC50 at THR alpha is over 10000 nM; in assay [1] (Homo sapiens, Huh-7, 24 h) it was over 100 nM.
As to `Nc1nn(-c2cc(Cl)c(Oc3cc(C4CC5(CCC5)C4)c(=O)[nH]n3)c(Cl)c2)c(=O)[nH]c1=O` [Compound 94], the Emax at THR alpha is under 50%; in assay [1] (Homo sapiens, Huh-7, 24 h), 50 to 75%; at THR beta it was 50 to 75%. For the same molecule, the EC50 at THR alpha fell in the range of 1000 to 10000 nM; in assay [1] (Homo sapiens, Huh-7, 24 h), 100 to 1000 nM; at THR beta, 50 to 250 nM.
As to `Cc1cc(-n2nc(C#N)c(=O)[nH]c2=O)cc(C)c1Cc1ccc2[nH]cc(C(C)C)c2n1` [Compound 31, 2-[4-[(3-isopropyl-1H-pyrrolo[3,2-b]pyridin-5-yl)methyl]-3,5-dimethyl-phenyl]-3,5-dioxo-1,2,4-triazine-6-carbonitrile], the Emax was over 75% on THR alpha; over 75% in assay [1] (Homo sapiens, Huh-7, 24 h); over 75% at THR beta. Also, the EC50 at THR alpha was 1000 to 10000 nM; in assay [1] (Homo sapiens, Huh-7, 24 h) it was 100 to 1000 nM; on THR beta, 250 to 1000 nM.
Take `CCC(C)c1cc(Oc2c(Cl)cc(-n3nc(N)c(=O)[nH]c3=O)cc2Cl)n[nH]c1=O` (stereo not shown) [Compound 39-A]: on THR alpha, the EC50 fell in the range of 50 to 250 nM and the “Activity category Assay 2 THRα (Emax)” value was “A (Emax≥75%)”. In assay [1], the “Activity category Assay 3 Emax” value is “B (Emax≥50%, and <75%)”; the EC50 is under 100 nM. On THR beta, the EC50 was in the range of 50 to 250 nM and the “Activity category Assay 2 THRβ (Emax)” value is on record as “A (Emax≥75%)”.
For the molecule `Nc1nn(-c2cc(Cl)c(Oc3cc(-c4ccc5c(c4)CCCO5)c(=O)[nH]n3)c(Cl)c2)c(=O)[nH]c1=O` [Compound 114], the Emax is under 50% at THR alpha; 50 to 75% in assay [1] (Homo sapiens, Huh-7, 24 h); under 50% at THR beta. Besides, the EC50 at THR alpha is over 10000 nM; in assay [1] (Homo sapiens, Huh-7, 24 h), 100 to 1000 nM; at THR beta it was 250 to 1000 nM.
Consider `Cc1cc(-n2nc(N)c(=O)[nH]c2=O)cc(C)c1Cc1ccc2[nH]cc(C(C)C)c2n1` [Compound 55, 6-amino-2-[4-[(3-isopropyl-1H-pyrrolo[3,2-b]pyridin-5-yl)methyl]-3,5-dimethyl-phenyl]-1,2,4-triazine-3,5-dione], for which the Emax at THR alpha is over 75%; in assay [1] (Homo sapiens, Huh-7, 24 h), over 75%; on THR beta, over 75%. Also, the EC50 is 50 to 250 nM on THR alpha; under 100 nM in assay [1] (Homo sapiens, Huh-7, 24 h); under 50 nM at THR beta.
On to `Nc1nn(-c2cc(Cl)c(Oc3n[nH]c(=O)cc3-c3ccc4ccccc4c3)c(Cl)c2)c(=O)[nH]c1=O` [Compound 67-A, 6-amino-2-(3,5-dichloro-4-((4-(naphthalen-2-yl)-6-oxo-1,6-dihydropyridazin-3-yl)oxy)phenyl)-1,2,4-triazine-3,5(2H,4H)-dione], for which the Emax on THR alpha is under 50%; in assay [1] (Homo sapiens, Huh-7, 24 h), under 50%; on THR beta, under 50%. Also, the EC50 on THR alpha lay in the range of 1000 to 10000 nM; in assay [1] (Homo sapiens, Huh-7, 24 h), 100 to 1000 nM.
As to `CC(c1cc(Oc2c(Cl)cc(-n3nc(N)c(=O)[nH]c3=O)cc2Cl)n[nH]c1=O)C1CC(F)(F)C1` (single isomer, unassigned) [Compound 61-A, 6-amino-2-[3,5-dichloro-4-([5-[1-(3,3-difluorocyclobutyl)ethyl]-6-oxo-1H-pyridazin-3-yl]oxy)phenyl]-4H-1,2,4-tri-azine-3,5-dione], the Emax at THR alpha was 50 to 75%; at THR beta, over 75%. Moreover, the EC50 at THR alpha was 50 to 250 nM; in assay [1] (Homo sapiens, Huh-7, 24 h) it was under 100 nM; on THR beta, under 50 nM. In addition, the “Activity category Assay 3 Emax” value in assay [1] is “B (Emax≥50%, and <75%)”.
Turning to `C[C@H]1C[C@H](c2cc(Oc3c(Cl)cc(-n4nc(N)c(=O)[nH]c4=O)cc3Cl)n[nH]c2=O)C1` (single isomer, unassigned) [Compound 86-A, 6-Amino-2-(3,5-dichloro-4-((5-((1r,3r)-3-methylcyclobutyl)-6-oxo-1,6-dihydropyridazin-3-yl)oxy)phenyl)-1,2,4-triazine-3,5(2H,4H)-dione], the Emax at THR alpha is 50 to 75%; in assay [1] (Homo sapiens, Huh-7, 24 h), 50 to 75%; on THR beta, over 75%. Also, the EC50 on THR alpha was 250 to 1000 nM; in assay [1] (Homo sapiens, Huh-7, 24 h) it was under 100 nM; at THR beta it was 50 to 250 nM.
Regarding `Cc1cc(-n2nc(N)c(=O)[nH]c2=O)cc(C)c1Cc1cc2c(C(C)C)c[nH]c2cn1` [Compound 157, 6-amino-2-[4-[(3-isopropyl-1H-pyrrolo[2,3-c]pyridin-5-yl)methyl]-3,5-dimethyl-phenyl]-1,2,4-triazine-3,5-dione], the Emax is 50 to 75% at THR alpha; over 75% in assay [1] (Homo sapiens, Huh-7, 24 h); over 75% at THR beta. Besides, the EC50 was 50 to 250 nM at THR alpha; under 100 nM in assay [1] (Homo sapiens, Huh-7, 24 h); under 50 nM on THR beta.
For the molecule `CCC(C)c1cc(Oc2c(Cl)cc(-n3nc(N)c(=O)[nH]c3=O)cc2Cl)n[nH]c1=O` (stereo not shown) [Compound 39-B], at THR alpha, the EC50 is under 50 nM and the “Activity category Assay 2 THRα (Emax)” value is recorded as “A (Emax≥75%)”. Further, in assay [1], the “Activity category Assay 3 Emax” value is given as “A (Emax≥75%)” and the EC50 is under 100 nM. On THR beta, the EC50 is under 50 nM and the “Activity category Assay 2 THRβ (Emax)” value is reported as “A (Emax≥75%)”.

For the origin of these results see patent US12180192B2, “Modulators of THR-β and methods of use thereof” (ALIGOS THERAPEUTICS, INC., priority 2019, dated 2024).
